Measurements reported in US20230159516A1 (priority 2020, published 2023).

System: SARS-CoV-2
Assay type: cell-based

SMILES	block of the cytopathic effect (CPE) of SARS-CoV-2
O=C(Oc1cncc(Cl)c1)c1cccc2c1CCN2 [CTRL-1720S]	significantly block the cytopathic effect
COc1cccc2[nH]c(C(=O)N[C@@H](CC(C)C)C(=O)N[C@@H](C[C@@H]3CCNC3=O)C(=O)c3nc4ccccc4s3)cc12 [GRL-2420S]	significantly block the cytopathic effect
